Results taken from patent publication US7309691B2, “Combined pharmaceutical preparation containing LHRH-analogous substances and anti estrogens for treating gynaecological disorders” (Achering Aktiengesellschaft, priority 1996, dated 2007).

Experiments:
[1] = system: experimentally produced endometriosis (cystic endometriosis foci); assay: Experimentally produced endometriosis in the rat (transplanted endometrium fragments)
Experimental: Fragments of endometrium were transplanted into different regions of the abdominal cavity of 60 animals.
Four weeks later the development of the endometriosis (cystic endometriosis foci) was examined.
The animals were then treated for 4 weeks with the LHRH antagonists Antide (0.5 mg/animal every 3 days s.c.) and Raloxifen (3 mg/animal per day p.o.) in each case alone, or in a combination of the two compounds. At the end the size of the endometriosis foci before the beginning of the treatment was compared with the values after 4 weeks' treatment.
60 animals received the LHRH antagonist Antide and Raloxifen in parallel for the first 2 weeks and Raloxifen alone for the following 2 weeks. The doses were selected as in 1.1.
60 animals received the LHRH antagonist Antide for 2 weeks. On completion of the LHRH administration Raloxifen was then administered for 2 weeks.
Analogously to Example 1, treatment with LHRH antagonists Ac-D-Nal-D-Cpa-D-Pal-Ser-Tyr-D-Cit-Leu-Lys(Mor)-D-Ala-NH2 and Droloxifen was carried out on 40 animals.

[2] = women; literature; cited from earlier work

Which endogenous oestrogen levels ([1]; 1.1: 4 weeks' treatment, alone) does the source give for Antide here?
The endogenous oestrogen levels was “reduction in endogenous oestrogen levels corresponding to an ovariectomy”.

What about the “regression of the endometriosis foci (size before vs after treatment)” value ([1]; 1.1: 4 weeks' treatment, Antide 0.5 mg/animal every 3 days s.c., Raloxifen 3 mg/animal per day p.o., each alone or simultaneous combination) of the same compound?
The value was “complete regression”.

What about the osteoclast activity ([1]; rat, in vivo) of the same compound?
Its osteoclast activity is “increase”.

Which “side effects of treatment” value [2] does the source give for `C#C[C@]1(O)CC[C@H]2[C@@H]3CCC4=Cc5oncc5C[C@]4(C)[C@H]3CC[C@@]21C` [danazol] here?
The value was “androgenisation phenomena”.
